Earlier results, collected in patent publication US7393852B2, “Piperazine derivatives and methods of use” (Amgen Inc., priority 2003, dated 2008).
Peptide text beside a SMILES is read from it.

Q: Which “half-life of BK in plasma” value does the source give for `NC(N)=NCCC[C@H](NC(=O)[C@H](Cc1ccccc1)NC(=O)[C@@H]1CCCN1C(=O)[C@H](CO)NC(=O)[C@H](Cc1ccccc1)NC(=O)CNC(=O)[C@@H]1CCCN1C(=O)[C@@H]1CCCN1C(=O)[C@@H](N)CCCN=C(N)N)C(=O)O` [BK, Bradykinin] (H-RPPGFSPFR-OH) here?
A: approximately 17 seconds
